The record followed here is ChEMBL document CHEMBL6074684, “Structure-activity relationship study of novel evodiamine amino acid conjugates with potent anti-colorectal cancer efficacy” (Eur J Med Chem, 2025).

Broadly, the IC50 is the point on the concentration scale where inhibition reaches its midpoint.

SMILES strings stand for the structures.

Holding throughout (assay type): functional, cell-based
Assay [1] concerns HT-29. In words: Antiproliferative activity against human HT-29 cells assessed as inhibition of cell growth incubated for 72 hrs by MTT assay. Particulars: HT-29, 72 h. (Tetrazolium dyes change colour on reduction, which living cells bring about.)
Assay [2] concerns HCT-116. In words: Antiproliferative activity against human […] cells assessed as inhibition of cell growth incubated for 72 hrs by MTT assay. Particulars: HCT-116, 72 h.
For assay [3], the system named is LoVo. In words: Antiproliferative activity against human LoVo cells assessed as inhibition of cell growth incubated for 72 hrs by MTT assay.
The subject of assay [4] is RKO. In words: Antiproliferative activity against human RKO cells assessed as inhibition of cell growth incubated for 72 hrs by MTT assay.
For assay [5], the system named is HGC-27. Put plainly: Antiproliferative activity against human HGC-27 cells assessed as inhibition of cell growth incubated for 72 hrs by MTT assay. Particulars: HGC-27, 72 h.
Assay [6] relates to MGC-803. Put plainly: Antiproliferative activity against human MGC-803 cells assessed as inhibition of cell growth incubated for 72 hrs by MTT assay. Particulars: MGC-803, 72 h.
Assay [7] has as its system SGC-7901. Put plainly: Antiproliferative activity against human SGC-7901 cells assessed as inhibition of cell growth incubated for 72 hrs by MTT assay. Particulars: SGC-7901, 72 h.
Assay [8] relates to Huh-7. In words: Antiproliferative activity against human Huh-7 cells assessed as inhibition of cell growth incubated for 72 hrs by MTT assay. Particulars: Huh-7, 72 h.
Assay [9] has as its system SK-HEP1. Put plainly: Antiproliferative activity against human SK-HEP1 cells assessed as inhibition of cell growth incubated for 72 hrs by MTT assay. Particulars: SK-HEP1, 72 h.
For assay [10], the system named is MCF7. Put plainly: Antiproliferative activity against human MCF7 cells assessed as inhibition of cell growth incubated for 72 hrs by MTT assay. Particulars: MCF7, 72 h.

`CC(C)(C)OC(=O)N[C@@H](Cc1c[nH]c2ccccc12)C(=O)Oc1ccc2[nH]c3c(c2c1)CCN1C(=O)c2cc(F)ccc2N(c2cccc(F)c2)[C@H]31`: the IC50 worked out at 0.54 µM in [1]; 0.28 µM in assay [2]; 0.25 µM in assay [3]; 0.08 µM in assay [4]; 0.33 µM in assay [5]; 0.69 µM in [6]. Also, the IC50 was 1.48 µM in assay [7], 0.4 µM in [8], 0.9 µM in assay [9] and 1.28 µM in assay [10].
Take `C[C@H](NC(=O)OC(C)(C)C)C(=O)Oc1ccc2[nH]c3c(c2c1)CCN1C(=O)c2cc(F)ccc2N(c2cccc(F)c2)[C@@H]31`: the IC50 was found to be 18.6 µM in [1]; 18.2 µM in [2]; 19.7 µM in assay [3]; 15.9 µM in [4]; 20.3 µM in assay [5]; 11.3 µM in assay [6]. Further, the IC50 in assay [7] was 40.2 µM; in assay [8], 11.7 µM; in assay [9] it was 26.6 µM; in assay [10] it was 28.5 µM.
Regarding `CC(C)[C@H](NC(=O)OC(C)(C)C)C(=O)Oc1ccc2[nH]c3c(c2c1)CCN1C(=O)c2cc(F)ccc2N(c2cccc(F)c2)[C@H]31`, the IC50 was found to be 0.34 µM in assay [1]; 0.43 µM in assay [2]; 0.29 µM in assay [3]; 0.2 µM in assay [4]; 0.42 µM in assay [5]; 0.38 µM in assay [6]. Moreover, the IC50 in assay [7] is 0.81 µM; in assay [8], 0.28 µM; in assay [9] it was 1.15 µM; in [10], 0.98 µM.
For `CC(C)(C)OC(=O)N[C@@H](Cc1ccccc1)C(=O)Oc1ccc2[nH]c3c(c2c1)CCN1C(=O)c2cc(F)ccc2N(c2cccc(F)c2)[C@@H]31`, the IC50 in assay [1] worked out at 30.5 µM; in assay [2], 26.2 µM; in assay [3], 15.7 µM; in [4] it was 19.5 µM; in assay [5] it was 22.7 µM; in assay [6], 15.9 µM. The IC50 in assay [7] turned out to be 47.7 µM; in assay [8] it was 11.8 µM; in assay [9], 37.8 µM; in assay [10] it was 47.3 µM.
For the compound `CCC(C)[C@H](NC(=O)OC(C)(C)C)C(=O)Oc1ccc2[nH]c3c(c2c1)CCN1C(=O)c2cc(F)ccc2N(c2cccc(F)c2)[C@H]31` (some centres undefined), the IC50 in assay [1] turned out to be 0.44 µM; in [2], 0.55 µM; in assay [3] it was 0.32 µM; in [4], 0.23 µM; in assay [5], 0.52 µM; in assay [6], 0.48 µM. The IC50 in [7] was 1.57 µM; in assay [8], 0.31 µM; in [9] it was 0.97 µM; in [10] it was 0.81 µM.
Turning to `CC(C)C[C@H](NC(=O)OC(C)(C)C)C(=O)Oc1ccc2[nH]c3c(c2c1)CCN1C(=O)c2cc(F)ccc2N(c2cccc(F)c2)[C@H]31`, the IC50 in assay [1] was determined as 0.19 µM; in assay [2] it was 0.37 µM; in assay [3], 0.22 µM; in assay [4] it was 0.15 µM; in assay [5], 0.3 µM; in [6], 0.32 µM. In addition, the IC50 stood at 0.69 µM in assay [7], 0.14 µM in [8], 0.65 µM in assay [9] and 1.1 µM in [10].
On to `CCC(C)[C@H](NC(=O)OC(C)(C)C)C(=O)Oc1ccc2[nH]c3c(c2c1)CCN1C(=O)c2cc(F)ccc2N(c2cccc(F)c2)[C@@H]31` (some centres undefined), for which the IC50 in assay [1] is 52.5 µM; in assay [2], > 100 µM; in assay [3], 55.8 µM; in assay [4], > 100 µM; in assay [5], 55.7 µM; in [6], > 100 µM. Moreover, the IC50 in assay [7] is > 100 µM; in assay [8], 46 µM; in [9], 62.4 µM; in assay [10], 69.8 µM.
Regarding `O=C1c2cc(F)ccc2N(c2cccc(F)c2)[C@H]2c3[nH]c4ccc(O)cc4c3CCN12`, the IC50 was determined as 0.18 µM in [1], 0.35 µM in assay [2], 0.13 µM in [3] and 0.1 µM in [4].
